Measurements reported in ChEMBL document CHEMBL1144017, “Novel AMPA and kainate receptor antagonists containing the pyrazolo[1,5-c]quinazoline ring system: Synthesis and structure-activity relationships” (Bioorg Med Chem, 2008).

Legend:
[1] = Displacement of [3H]kainate from KA receptor in rat cortical membrane; format: cell membranes
[2] = Displacement of [3H]AMPA from AMPA receptor in rat cortical membrane; format: cell membranes
[3] = species on record: Rattus norvegicus; experiment: Ratio of Ki for rat NMDA receptor to Ki for rat AMPA receptor
[4] = biological target: Glutamate NMDA receptor; experiment: Displacement of [3H]glycine from NMDA receptor in rat cortical membrane; format: cell membranes
[5] = species on record: Rattus norvegicus; experiment: Displacement of [3H]kainate from KA receptor in rat cortical membrane at 100 uM; format: cell membranes
[6] = biological target: AMPA receptor (Mus musculus); experiment: Antagonist activity at AMPA receptor assessed as inhibition of AMPA-induced depolarization in mouse cortical wedge preparation by electrophysiology assay
[7] = biological target: Glutamate NMDA receptor (Mus musculus); experiment: Antagonist activity at NMDA receptor assessed as inhibition of NMDA-induced depolarization in mouse cortical wedge preparation by electrophysiology assay
[8] = biological target: Glutamate NMDA receptor (Rattus norvegicus) (UniProt P35439+Q00959+Q00960+Q00961+Q62645+Q8VHN2+Q9R1M7); experiment: Displacement of [3H]glycine from NMDA receptor in rat cortical membrane at 100 uM; format: cell membranes
[9] = species on record: Rattus norvegicus; experiment: Displacement of [3H]AMPA from AMPA receptor in rat cortical membrane at 100 uM; format: cell membranes

| Compound | IC50 [1] | Ki [2] | Ratio Ki [3] | Ki [4] | Activity [5] | IC50 [6] | IC50 [7] | Activity [8] | Activity [9] |
| --- | --- | --- | --- | --- | --- | --- | --- | --- | --- |
| CCOC(=O)c1c(C(=O)O)nn2c(=O)[nH]c3cc(Cl)c([N+](=O)[O-])cc3c12 | 60 µM | 0.94 µM | 5 | 4.7 µM | – | – | – | – | – |
| O=C(O)CCNC(=O)Nc1cc2c(cc1Cl)[nH]c(=O)n1nc(C(=O)O)c(C(=O)O)c21 | 4.6 µM | 0.16 µM | 425 | 68 µM | – | – | – | – | – |
| O=C(O)c1nn2c(=O)[nH]c3cc(Cl)c([N+](=O)[O-])cc3c2c1[N+](=O)[O-] | – | 11.9 µM | 1.7 | 20.5 µM | 29% | – | – | – | – |
| CCNC(=O)Nc1cc2c(cc1Cl)[nH]c(=O)n1nc(C(=O)O)c(C(=O)O)c21 | 9.8 µM | 0.56 µM | 73.3 | 41 µM | – | – | – | – | – |
| CCOC(=O)c1nn2c(=O)[nH]c3cc(Cl)c(-n4cnnc4)cc3c2c1C(=O)OCC | 82 µM | 1.2 µM | > 80 | – | – | 5.8 µM | > 20 µM | 18% | – |
| CCOC(=O)c1nn2c(=O)[nH]c3cc(Cl)c([N+](=O)[O-])cc3c2c1[N+](=O)[O-] | – | – | 0.4 | 36.2 µM | 16% | – | – | – | 45% |
| O=C(NCc1ccccc1)Nc1cc2c(cc1Cl)[nH]c(=O)n1nc(C(=O)O)c(C(=O)O)c21 | 11 µM | 0.37 µM | 44 | 16.3 µM | – | – | – | – | – |
| CCOC(=O)c1nn2c(=O)[nH]c3cc(Cl)c(NC(=O)NCCc4ccccc4)cc3c2c1C(=O)OCC | – | – | 0.49 | 49 µM | 9% | – | – | – | 44% |
| CCOC(=O)c1cccc(NC(=O)Nc2cc3c(cc2Cl)[nH]c(=O)n2nc(C(=O)OCC)c(C(=O)OCC)c32)c1 | – | – | – | – | 0% | – | – | 0% | 18% |
| CCOC(=O)c1nn2c(=O)[nH]c3cc(Cl)c(NC(=O)NCc4ccccc4)cc3c2c1C(=O)OCC | – | – | – | – | 0% | – | – | 19% | 44% |
| O=C(O)c1nn2c(=O)[nH]c3cc(Cl)c([N+](=O)[O-])cc3c2c1C(=O)O | 11.7 µM | 0.59 µM | 2 | 1.25 µM | – | – | – | – | – |
| O=C(Nc1cc2c(cc1Cl)[nH]c(=O)n1nc(C(=O)O)c(C(=O)O)c21)NC(Cc1ccccc1)C(=O)O (racemic) | 40 µM | 0.47 µM | 129 | 61 µM | – | – | – | – | – |
| CCOC(=O)c1nn2c(=O)[nH]c3cc(Cl)c(NC(=O)c4ccccc4C(=O)O)cc3c2c1C(=O)OCC | 0.11 µM | 2.8 µM | 12.8 | 36 µM | – | – | – | – | – |
| O=C(O)c1nn2c(=O)[nH]c3cc(Cl)c(-n4cnnc4)cc3c2c1C(=O)O | 2.4 µM | 0.1 µM | > 1000 | – | – | 2.5 µM | > 10 µM | 43% | – |
| CCOC(=O)c1nn2c(=O)[nH]c3cc(Cl)c(NC(=O)NC(Cc4ccccc4)C(=O)OC)cc3c2c1C(=O)OCC (racemic) | – | – | – | – | 16% | – | – | 16% | 46% |
| CCNC(=O)Nc1cc2c(cc1Cl)[nH]c(=O)n1nc(C(=O)OCC)c(C(=O)OCC)c21 | – | 27 µM | > 3.7 | – | 13% | – | – | 44% | – |
| O=C(NCCc1ccccc1)Nc1cc2c(cc1Cl)[nH]c(=O)n1nc(C(=O)O)c(C(=O)O)c21 | 17 µM | 0.48 µM | – | 31 µM | – | – | – | – | – |

| Compound | IC50 [1] | Ki [2] | Ratio Ki [3] | Ki [4] | Activity [5] | IC50 [6] | IC50 [7] | Activity [8] | Activity [9] |
| --- | --- | --- | --- | --- | --- | --- | --- | --- | --- |
| O=C(O)c1ccccc1C(=O)Nc1cc2c(cc1Cl)[nH]c(=O)n1nc(C(=O)O)c(C(=O)O)c21 | 0.52 µM | 1.3 µM | 20.7 | 27 µM | – | – | – | – | – |
| O=C(O)c1cc2c3cc(-n4cnnc4)c(Cl)cc3[nH]c(=O)n2n1 | – | 0.14 µM | – | – | – | – | – | – | – |
| CCOC(=O)c1nn2c(=O)[nH]c3cc(Cl)c([N+](=O)[O-])cc3c2c1C(=O)OCC | – | – | – | – | 0% | – | – | 30% | 40% |
| O=C(Nc1cccc(C(=O)O)c1)Nc1cc2c(cc1Cl)[nH]c(=O)n1nc(C(=O)O)c(C(=O)O)c21 | 3 µM | 0.42 µM | 83 | 35 µM | – | – | – | – | – |
| O=C(O)CNC(=O)Nc1cc2c(cc1Cl)[nH]c(=O)n1nc(C(=O)O)c(C(=O)O)c21 | 4.4 µM | 0.48 µM | 112 | 54 µM | – | – | – | – | – |
| CCOC(=O)c1nn2c(=O)[nH]c3cc(Cl)c([N+](=O)[O-])cc3c2c1Cl | – | 63 µM | > 1.5 | – | 25% | – | – | 45% | – |
| O=C(O)c1nn2c(=O)[nH]c3cc(Cl)c(-n4cccc4)cc3c2c1C(=O)O | 4.5 µM | 0.13 µM | 154 | 20 µM | – | – | – | – | – |
| CCOC(=O)c1nn2c(=O)[nH]c3cc(Cl)c(-n4ccc(C=O)c4)cc3c2c1C(=O)OCC | – | 15.7 µM | > 6 | – | 17% | – | – | 20% | – |
| O=C(Nc1ccc(C(=O)O)cc1)Nc1cc2c(cc1Cl)[nH]c(=O)n1nc(C(=O)O)c(C(=O)O)c21 | 13 µM | 1.1 µM | 44 | 49 µM | – | – | – | – | – |
| CCOC(=O)c1nn2c(=O)[nH]c3cc(Cl)c(-n4cccc4)cc3c2c1C(=O)OCC | – | 48 µM | > 2 | – | 12% | – | – | 13% | – |
| CCOC(=O)CCNC(=O)Nc1cc2c(cc1Cl)[nH]c(=O)n1nc(C(=O)OCC)c(C(=O)OCC)c21 | – | 3.8 µM | > 26 | – | 32% | – | – | 32% | – |
| CCOC(=O)CNC(=O)Nc1cc2c(cc1Cl)[nH]c(=O)n1nc(C(=O)OCC)c(C(=O)OCC)c21 | – | 8.9 µM | > 11 | – | 19% | – | – | 43% | – |
| O=C(O)c1nn2c(=O)[nH]c3cc(Cl)c([N+](=O)[O-])cc3c2c1Cl | 94 µM | 1.3 µM | 1.9 | 2.5 µM | – | – | – | – | – |
| O=C(Nc1ccccc1)Nc1cc2c(cc1Cl)[nH]c(=O)n1nc(C(=O)O)c(C(=O)O)c21 | 11 µM | 0.14 µM | 83.5 | 11.7 µM | – | – | – | – | – |
| CCOC(=O)c1ccc(NC(=O)Nc2cc3c(cc2Cl)[nH]c(=O)n2nc(C(=O)OCC)c(C(=O)OCC)c32)cc1 | – | – | – | – | 15% | – | – | 5% | 5% |
| CCOC(=O)CCCNC(=O)Nc1cc2c(cc1Cl)[nH]c(=O)n1nc(C(=O)OCC)c(C(=O)OCC)c21 | – | 3.5 µM | 28 | 99 µM | 24% | – | – | – | – |
| CCOC(=O)c1nn2c(=O)[nH]c3cc(Cl)c(NC(=O)Nc4ccccc4)cc3c2c1C(=O)OCC | – | – | – | – | 0% | – | – | 11% | 20% |
